Key:
U-87 MG [1] = experiment: Cytotoxicity against human U-87 MG cells assessed as survival rate at 10 uM measured after 72 hrs by MTT assay relative to control; assay type: functional, U-87MG ATCC; settings: read-out: Survival
HCT-116 [2] = experiment: Cytotoxicity against human HCT-116 cells assessed as survival rate at 10 uM measured after 72 hrs by MTT assay relative to control; assay type: functional; settings: read-out: Survival
MCF7 [3] = experiment: Cytotoxicity against human MCF7 cells assessed as survival rate at 10 uM measured after 72 hrs by MTT assay relative to control; assay type: functional; settings: read-out: Survival
U-87 MG [4] = experiment: Cytotoxicity against human U-87 MG cells assessed as inhibition of cell growth at 10 uM measured after 72 hrs by MTT assay relative to control; assay type: functional, U-87MG ATCC
HCT-116 [5] = experiment: Cytotoxicity against human HCT-116 cells assessed as inhibition of cell growth at 10 uM measured after 72 hrs by MTT assay relative to control; assay type: functional
MGC-803 [6] = experiment: Cytotoxicity against human MGC-803 cells assessed as inhibition of cell growth at 10 uM measured after 72 hrs by MTT assay relative to control; assay type: functional
MCF7 [7] = experiment: Cytotoxicity against human MCF7 cells assessed as inhibition of cell growth at 10 uM measured after 72 hrs by MTT assay relative to control; assay type: functional
MKN-45 [8] = experiment: Cytotoxicity against human MKN-45 cells assessed as inhibition of cell growth at 10 uM measured after 72 hrs by MTT assay relative to control; assay type: functional
HeLa [9] = experiment: Cytotoxicity against human HeLa cells assessed as inhibition of cell growth at 10 uM measured after 72 hrs by MTT assay relative to control; assay type: functional
HeLa [10] = experiment: Cytotoxicity against human HeLa cells assessed as inhibition of cell growth incubated for 72 hrs by MTT assay; assay type: functional, cell-based
HCT-116 [11] = experiment: Cytotoxicity against human HCT-116 cells assessed as inhibition of cell growth incubated for 72 hrs by MTT assay; assay type: functional, cell-based; settings: HCT-116, 72 h
MGC-803 [12] = experiment: Cytotoxicity against human MGC-803 cells assessed as inhibition of cell growth incubated for 72 hrs by MTT assay; assay type: functional, cell-based; settings: MGC-803, 72 h
MCF7 [13] = experiment: Cytotoxicity against human MCF7 cells assessed as inhibition of cell growth incubated for 72 hrs by MTT assay; assay type: functional, cell-based; settings: MCF7, 72 h
U-87 MG [14] = experiment: Cytotoxicity against human U-87 MG cells assessed as inhibition of cell growth incubated for 72 hrs by MTT assay; assay type: functional, cell-based, U-87MG ATCC
MKN-45 [15] = experiment: Cytotoxicity against human MKN-45 cells assessed as inhibition of cell growth incubated for 72 hrs by MTT assay; assay type: functional, cell-based; settings: MKN-45, 72 h
[16] = Cytotoxicity against HHL-5 cells assessed as inhibition of cell growth incubated for 72 hrs by MTT assay; assay type: toxicity, cell-based; settings: human
K562 = experiment: Antitumor activity against human K562 cells; assay type: functional, cell-based
HT-29 = experiment: Antitumor activity against human HT-29 cells; assay type: functional, cell-based
P388 = experiment: Antitumor activity against mouse P388 cells; assay type: functional, cell-based
A549 = experiment: Antitumor activity against human A549 cells; assay type: functional, cell-based

**Q.** What does the source list for `COc1ccc(C2=CC(=O)O/C2=C\c2ccc(C)cc2)cc1`?
**A.** viability at 10 µM (U-87 MG [1]): 94.1%; viability at 10 µM (HCT-116 [2]): 87.3%; viability at 10 µM (MCF7 [3]): 101%

**Q.** Which results are given for `O=C1C=C(c2ccccc2)/C(=C/c2ccc(O)cc2)O1`?
**A.** viability at 10 µM (U-87 MG [1]): 92.4%; viability at 10 µM (HCT-116 [2]): 87.7%; viability at 10 µM (MCF7 [3]): 87.1%

**Q.** For `COc1ccc(C2=CC(=O)O/C2=C\c2ccc(NC(C)=O)cc2)cc1`, which viability at 10 µM (U-87 MG [1]) is on record?
**A.** 39.2%

**Q.** What about the viability at 10 µM (HCT-116 [2]) of the same molecule?
**A.** 32.5%

**Q.** And the viability at 10 µM (MCF7 [3])?
**A.** 30.4%

**Q.** What about the inhibition at 10 µM (U-87 MG [4]) of the same molecule?
**A.** > 50%

**Q.** And the inhibition at 10 µM (HCT-116 [5])?
**A.** > 50%

**Q.** What about the inhibition at 10 µM (MGC-803 [6]) of the same molecule?
**A.** > 50%

**Q.** What about the inhibition at 10 µM (MCF7 [7]) of the same molecule?
**A.** > 50%

**Q.** What about the inhibition at 10 µM (MKN-45 [8]) of the same molecule?
**A.** > 50%

**Q.** And the inhibition at 10 µM (HeLa [9])?
**A.** > 50%

**Q.** And the IC50 (HeLa [10])?
**A.** 700 nM

**Q.** And the IC50 (HCT-116 [11])?
**A.** 2200 nM

**Q.** What about the IC50 (MGC-803 [12]) of the same molecule?
**A.** 3000 nM

**Q.** What about the IC50 (MCF7 [13]) of the same molecule?
**A.** 6100 nM

**Q.** And the IC50 (U-87 MG [14])?
**A.** 2500 nM

**Q.** What about the IC50 (MKN-45 [15]) of the same molecule?
**A.** 1000 nM

**Q.** What about the IC50 at 72 h [16] of the same molecule?
**A.** 5500 nM

**Q.** For `COc1ccc(C2=CC(=O)O/C2=C\c2ccc(C(C)C)cc2)cc1`, which viability at 10 µM (U-87 MG [1]) is on record?
**A.** 97.4%

**Q.** What about the viability at 10 µM (HCT-116 [2]) of the same molecule?
**A.** 85.9%

**Q.** What about the viability at 10 µM (MCF7 [3]) of the same molecule?
**A.** 102%

**Q.** Which IC50 (K562) does the source give for `CC1(C)CCc2cc(/C=C3\OC(=O)C=C3c3ccc(O)cc3)ccc2O1` here?
**A.** 10100 nM

**Q.** With `O=C1O/C(=C\c2ccc(O)c(Br)c2)C(c2ccc(O)c(Br)c2)=C1Cl` as the molecule, how does the IC50 (HT-29) read?
**A.** 2600 nM

**Q.** With `COc1ccc(C2=CC(=O)O/C2=C\c2ccc(C(=O)O)c(O)c2)cc1` as the molecule, how does the viability at 10 µM (U-87 MG [1]) read?
**A.** 106%

**Q.** And the viability at 10 µM (HCT-116 [2])?
**A.** 62.8%

**Q.** And the viability at 10 µM (MCF7 [3])?
**A.** 40.7%

**Q.** For `O=C1O/C(=C\c2ccc(O)c(Br)c2)C(c2ccc(O)cc2)=C1Cl`, which IC50 (HT-29) is on record?
**A.** 3100 nM

**Q.** What about the IC50 (P388) of the same molecule?
**A.** 3100 nM

**Q.** What about the IC50 (A549) of the same molecule?
**A.** 3100 nM

**Q.** Which IC50 (HT-29) does the source give for `O=C1O/C(=C\c2cc(Br)c(O)c(Br)c2)C(c2cc(Br)c(O)c(Br)c2)=C1Cl` here?
**A.** 8000 nM

**Q.** What about the IC50 (P388) of the same molecule?
**A.** 8000 nM

**Q.** What about the IC50 (A549) of the same molecule?
**A.** 8000 nM

**Q.** With `CC(C)=CCc1cc(/C=C2\OC(=O)C=C2c2ccc(O)cc2)ccc1O` as the molecule, how does the IC50 (K562) read?
**A.** 12800 nM

**Q.** What does the source list for `COc1ccc(C2=CC(=O)O/C2=C\c2ccc(O)c(OC)c2)cc1`?
**A.** viability at 10 µM (U-87 MG [1]): 37.8%; viability at 10 µM (HCT-116 [2]): 24.1%; viability at 10 µM (MCF7 [3]): 25.2%; inhibition at 10 µM (U-87 MG [4]): > 50%; inhibition at 10 µM (HCT-116 [5]): > 50%; inhibition at 10 µM (MGC-803 [6]): > 50%; inhibition at 10 µM (MCF7 [7]): > 50%; inhibition at 10 µM (MKN-45 [8]): > 50%; inhibition at 10 µM (HeLa [9]): > 50%; IC50 (HeLa [10]): 600 nM; IC50 (HCT-116 [11]): 400 nM; IC50 (MGC-803 [12]): 5400 nM; IC50 (MCF7 [13]): 100 nM; IC50 (U-87 MG [14]): 4500 nM; IC50 (MKN-45 [15]): 300 nM; IC50 at 72 h [16]: 1900 nM

**Q.** Which results are given for `CC(=O)Nc1ccc(/C=C2\OC(=O)C=C2c2ccccc2)cc1`?
**A.** viability at 10 µM (U-87 MG [1]): 90.3%; viability at 10 µM (HCT-116 [2]): 87.2%; viability at 10 µM (MCF7 [3]): 92.2%

**Q.** With `COc1ccc(C2=CC(=O)O/C2=C\c2ccccc2)cc1` as the molecule, how does the viability at 10 µM (U-87 MG [1]) read?
**A.** 52%

**Q.** What about the viability at 10 µM (HCT-116 [2]) of the same molecule?
**A.** 32.5%

**Q.** And the viability at 10 µM (MCF7 [3])?
**A.** 29.7%

**Q.** And the inhibition at 10 µM (U-87 MG [4])?
**A.** > 50%

**Q.** What about the inhibition at 10 µM (HCT-116 [5]) of the same molecule?
**A.** > 50%

**Q.** What about the inhibition at 10 µM (MGC-803 [6]) of the same molecule?
**A.** > 50%

**Q.** What about the inhibition at 10 µM (MCF7 [7]) of the same molecule?
**A.** > 50%

**Q.** And the inhibition at 10 µM (MKN-45 [8])?
**A.** > 50%

**Q.** And the inhibition at 10 µM (HeLa [9])?
**A.** > 50%

**Q.** What about the IC50 (HeLa [10]) of the same molecule?
**A.** 1800 nM

**Q.** And the IC50 (HCT-116 [11])?
**A.** 1900 nM

**Q.** And the IC50 (MGC-803 [12])?
**A.** 5000 nM

**Q.** What about the IC50 (MCF7 [13]) of the same molecule?
**A.** 1200 nM

**Q.** What about the IC50 (U-87 MG [14]) of the same molecule?
**A.** 13700 nM

**Q.** And the IC50 (MKN-45 [15])?
**A.** 1000 nM

**Q.** What about the IC50 at 72 h [16] of the same molecule?
**A.** 1600 nM

— ChEMBL document CHEMBL6078667, “Synthesis, Biological Evaluation, and Mechanistic Insights of Rubrolide Analogues as Antitumor Agents” (J Nat Prod, 2024)
